This is an account of results in patent US20260327204A1, “DEGRADERS OF CYCLIN-DEPENDENT KINASE 12/13, COMPOSITIONS, AND USES THEREOF” (ZHEJIANG UNIVERSITY, priority 2023, published 2026).

Series [1] is described as follows: In vivo pharmacokinetics in mice. To be noted: mouse, plasma, ip, 30 mg/kg, intraperitoneal.
For series [2], the target named is T1, CDK13 (Homo sapiens, UniProt Q14004). Briefly: Western blot degradation of CDK13 (Example 3). Type of series: cell-based. Also on record: degradation of CDK12/13 protein in leukemia cells KASUMI-1, MV4-11, and Jurkat; endogenous in cells.
The next series relates to CCNK. Nature of the series: Reversal of CCNK degradation by proteasome inhibitor MG132, Western blot. Type of series: cell-based. To be noted: MDA-MB-231, 24 h treatment, MG132 added 12 h before sample collection. On the procedure:
(§1) • Cell lines: HCT-116, Jurkat, or MDA-MB-231 • Culture medium: DMEM/RIPM-1640+10% Hyclone serum • Compound dissolution method: The compounds (small molecule conjugates as shown in Formulae 101-147, MG132) were dissolved in DMSO to prepare a 50 mM stock solution and then diluted to the corresponding concentrations.
(§2) (3) Compound treatment: The 50 mM compound stock solution was diluted with cell culture medium to a final concentration of 0.01 μM-3 μM. Cells were incubated in a 37 °C incubator with 5% CO2 for 3 h-48 h. The DMSO group served as the negative control.
In the figures, CDK12, CDK13, and CCNK are the target proteins under study, and β-Actin and GAPDH are the internal reference proteins. Internal reference proteins are used to indicate the total protein amount in each experimental group for quantitative analysis.

For series [3], the target named is T2, CDK12 (Homo sapiens, UniProt Q9NYV4). Nature of the series: Western blot degradation of CDK12 (Example 3). Type of series: cell-based. Also on record: degradation of CDK12/13 protein in leukemia cells KASUMI-1, MV4-11, and Jurkat; endogenous in cells.
Series [4] concerns the target T1, CDK13. Briefly: Reversal of CDK13 degradation by proteasome inhibitor MG132, Western blot. More on the design: endogenous in cells. Type of series: cell-based. To be noted: MDA-MB-231, 24 h treatment, MG132 added 12 h before sample collection. How it is done:
as §1, §2

The target of a further series is T3, hERG channel (Homo sapiens, UniProt Q12809).
T3 construct: manual patch clamp of tail current
Briefly: Manual patch-clamp of hERG channel currents stably expressed in HEK293 cells. Type of series: cell-based. As to conditions: 0.3 μM-30 μM, HEK293, room temperature. On the procedure:
III. Manual Patch-Clamp Detection of the Effect of Compounds on hERG Channel Currents Stably Expressed in HEK293 Cells
A 30 mM stock solution of compound 147 was prepared in DMSO. The stock solution was serially diluted with DMSO to prepare secondary stock solutions of 10 mM, 3 mM, 1 mM, and 0.3 mM. 10 μL of the secondary stock solution was diluted in 10 mL of extracellular solution to prepare final concentrations of 30 μM, […], 3 μM, 1 μM, and 0.3 μM for electrophysiological detection. A 10 mM stock solution of the positive control, cisapride, was prepared in DMSO. The stock solution was serially diluted with DMSO to prepare secondary stock solutions of 1000 μM, 100 μM, 10 μM, 1 μM, and 0.1 μM. 10 μL of the secondary stock solution was diluted in 10 mL of extracellular solution to prepare final concentrations of 1000 nM, 100 nM, 10 nM, 1 nM, and 0.1 nM for electrophysiological detection. […]
d. […] The current was recorded once every 15 s.
e. The hERG potassium channel current was recorded at room temperature before drug addition. […]
The original data hERG tail current peak values were extracted from the PatchMaster software. The current inhibition rate was calculated using the following formula:
The mean and standard error were calculated for each concentration. […]

For series [5], the target named is T2, CDK12. Briefly: Reversal of CDK12 degradation by proteasome inhibitor MG132, Western blot. Type of series: cell-based. More on the design: endogenous in cells. To be noted: MDA-MB-231, 24 h treatment, MG132 added 12 h before sample collection. How it is done: as §1, §2
Series [6] deals with tumor cells MDA-MB-231, MV4-11, and KASUMI-1 and normal cells L-02 and HK-2. Nature of the series: Survival of tumor and normal cells (CCK8 / SRB). Type of series: cell-based. To be noted: 72 h, concentration gradient, FIG. 10. How it is done: The proliferation inhibition of compounds on leukemia cell lines MV4-11 and KASUMI-1 was determined using the CCK8 assay, while the inhibition on solid tumor cell lines MDA-MB-231 was determined using the Sulforhodamine B (SRB) assay.
CCK8 Assay: First, MV4-11 and KASUMI-1 cells were seeded in a 96-well plate at a density of 5,000 cells per well. Then, a concentration gradient (0.03 μM-10 μM) of the compounds was administered for 72 h, with DMSO solvent serving as the negative control. At the end of the treatment, 10 μL of CCK8 reagent was added to each well. The plate was incubated for 4 hours at 37 °C in the dark. After mixing, the absorbance value was measured at 450 nm.
SRB Assay: First, MDA-MB-231, L-02, and HK-2 cells were seeded in a 96-well plate at a density of 3,000 cells per well. After 8-12 h of cell adhesion, a concentration gradient (62.5 nM-10 μM) of the compounds was administered for 72 h, with DMSO solvent serving as the negative control. At the end of the treatment, the cells were washed once with 70 μL of PBS, then fixed with 70 μL of 10% trichloroacetic acid at 4 °C for 1 h. After rinsing with tap water and drying in an oven, 70 μL of SRB staining solution was added to each well for 20 min at room temperature. […] Finally, 150 μL of 10 mM Tris-base dissolving solution was added, and the plate was shaken for 15 min before the absorbance value was measured at 540 nm.

Read-outs that look alike come from different tables or passages of the source.

T2 sequence (Q9NYV4 whole entry): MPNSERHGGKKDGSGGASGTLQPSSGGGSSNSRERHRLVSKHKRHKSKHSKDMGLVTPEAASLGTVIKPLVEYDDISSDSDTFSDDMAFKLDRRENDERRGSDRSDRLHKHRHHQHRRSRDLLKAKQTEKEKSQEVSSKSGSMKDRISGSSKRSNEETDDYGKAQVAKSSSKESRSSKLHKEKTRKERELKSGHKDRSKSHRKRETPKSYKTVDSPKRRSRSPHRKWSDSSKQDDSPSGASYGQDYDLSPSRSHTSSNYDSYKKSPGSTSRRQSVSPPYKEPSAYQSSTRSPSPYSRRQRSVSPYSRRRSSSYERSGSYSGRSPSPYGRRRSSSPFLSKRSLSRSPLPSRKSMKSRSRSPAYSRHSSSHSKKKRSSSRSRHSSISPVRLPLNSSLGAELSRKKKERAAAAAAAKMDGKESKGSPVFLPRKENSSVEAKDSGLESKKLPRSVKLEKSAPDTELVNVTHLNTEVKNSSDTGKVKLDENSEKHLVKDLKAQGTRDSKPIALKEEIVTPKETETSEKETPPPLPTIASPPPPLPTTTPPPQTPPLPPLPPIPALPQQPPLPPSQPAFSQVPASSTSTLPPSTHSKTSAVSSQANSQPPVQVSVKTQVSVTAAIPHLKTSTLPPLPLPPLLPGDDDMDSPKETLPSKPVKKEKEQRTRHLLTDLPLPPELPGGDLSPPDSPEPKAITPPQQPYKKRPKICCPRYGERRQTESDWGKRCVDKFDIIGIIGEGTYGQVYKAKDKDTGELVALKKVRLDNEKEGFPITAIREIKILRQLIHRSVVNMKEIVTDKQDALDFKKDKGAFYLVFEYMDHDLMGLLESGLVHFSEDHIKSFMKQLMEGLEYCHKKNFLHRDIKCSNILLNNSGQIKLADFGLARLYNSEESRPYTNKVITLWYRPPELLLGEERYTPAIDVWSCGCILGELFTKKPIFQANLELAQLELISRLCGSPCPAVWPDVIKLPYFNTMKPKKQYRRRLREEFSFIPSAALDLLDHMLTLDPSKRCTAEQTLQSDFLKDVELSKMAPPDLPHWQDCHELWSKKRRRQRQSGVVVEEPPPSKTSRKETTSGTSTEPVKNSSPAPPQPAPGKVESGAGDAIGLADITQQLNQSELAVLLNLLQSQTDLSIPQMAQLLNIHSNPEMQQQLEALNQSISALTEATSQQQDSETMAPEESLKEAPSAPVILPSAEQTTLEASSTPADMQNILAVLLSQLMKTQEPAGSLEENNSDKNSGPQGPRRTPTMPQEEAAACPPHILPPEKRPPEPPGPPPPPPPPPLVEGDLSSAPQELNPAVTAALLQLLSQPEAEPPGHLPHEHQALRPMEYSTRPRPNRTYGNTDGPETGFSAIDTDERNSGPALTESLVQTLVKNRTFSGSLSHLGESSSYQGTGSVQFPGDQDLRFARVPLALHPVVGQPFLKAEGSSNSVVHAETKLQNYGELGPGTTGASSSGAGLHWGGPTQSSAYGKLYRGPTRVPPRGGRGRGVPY
T2 sequence (O75909 whole entry partner): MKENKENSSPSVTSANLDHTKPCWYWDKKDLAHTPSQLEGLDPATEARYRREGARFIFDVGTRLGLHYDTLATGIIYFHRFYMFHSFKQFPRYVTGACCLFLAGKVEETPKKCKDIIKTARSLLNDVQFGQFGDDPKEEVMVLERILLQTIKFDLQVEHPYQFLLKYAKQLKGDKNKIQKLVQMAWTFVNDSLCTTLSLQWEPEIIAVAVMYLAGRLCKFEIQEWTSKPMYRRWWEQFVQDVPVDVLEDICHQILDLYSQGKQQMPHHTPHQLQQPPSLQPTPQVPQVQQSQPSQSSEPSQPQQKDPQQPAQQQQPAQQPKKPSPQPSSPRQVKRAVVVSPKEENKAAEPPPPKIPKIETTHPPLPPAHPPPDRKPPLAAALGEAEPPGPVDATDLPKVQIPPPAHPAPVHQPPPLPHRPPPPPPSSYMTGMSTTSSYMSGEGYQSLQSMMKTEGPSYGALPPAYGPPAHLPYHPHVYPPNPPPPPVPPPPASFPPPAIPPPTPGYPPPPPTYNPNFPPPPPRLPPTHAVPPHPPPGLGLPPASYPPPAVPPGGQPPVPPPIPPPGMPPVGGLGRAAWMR
T1 sequence (Q14004 whole entry): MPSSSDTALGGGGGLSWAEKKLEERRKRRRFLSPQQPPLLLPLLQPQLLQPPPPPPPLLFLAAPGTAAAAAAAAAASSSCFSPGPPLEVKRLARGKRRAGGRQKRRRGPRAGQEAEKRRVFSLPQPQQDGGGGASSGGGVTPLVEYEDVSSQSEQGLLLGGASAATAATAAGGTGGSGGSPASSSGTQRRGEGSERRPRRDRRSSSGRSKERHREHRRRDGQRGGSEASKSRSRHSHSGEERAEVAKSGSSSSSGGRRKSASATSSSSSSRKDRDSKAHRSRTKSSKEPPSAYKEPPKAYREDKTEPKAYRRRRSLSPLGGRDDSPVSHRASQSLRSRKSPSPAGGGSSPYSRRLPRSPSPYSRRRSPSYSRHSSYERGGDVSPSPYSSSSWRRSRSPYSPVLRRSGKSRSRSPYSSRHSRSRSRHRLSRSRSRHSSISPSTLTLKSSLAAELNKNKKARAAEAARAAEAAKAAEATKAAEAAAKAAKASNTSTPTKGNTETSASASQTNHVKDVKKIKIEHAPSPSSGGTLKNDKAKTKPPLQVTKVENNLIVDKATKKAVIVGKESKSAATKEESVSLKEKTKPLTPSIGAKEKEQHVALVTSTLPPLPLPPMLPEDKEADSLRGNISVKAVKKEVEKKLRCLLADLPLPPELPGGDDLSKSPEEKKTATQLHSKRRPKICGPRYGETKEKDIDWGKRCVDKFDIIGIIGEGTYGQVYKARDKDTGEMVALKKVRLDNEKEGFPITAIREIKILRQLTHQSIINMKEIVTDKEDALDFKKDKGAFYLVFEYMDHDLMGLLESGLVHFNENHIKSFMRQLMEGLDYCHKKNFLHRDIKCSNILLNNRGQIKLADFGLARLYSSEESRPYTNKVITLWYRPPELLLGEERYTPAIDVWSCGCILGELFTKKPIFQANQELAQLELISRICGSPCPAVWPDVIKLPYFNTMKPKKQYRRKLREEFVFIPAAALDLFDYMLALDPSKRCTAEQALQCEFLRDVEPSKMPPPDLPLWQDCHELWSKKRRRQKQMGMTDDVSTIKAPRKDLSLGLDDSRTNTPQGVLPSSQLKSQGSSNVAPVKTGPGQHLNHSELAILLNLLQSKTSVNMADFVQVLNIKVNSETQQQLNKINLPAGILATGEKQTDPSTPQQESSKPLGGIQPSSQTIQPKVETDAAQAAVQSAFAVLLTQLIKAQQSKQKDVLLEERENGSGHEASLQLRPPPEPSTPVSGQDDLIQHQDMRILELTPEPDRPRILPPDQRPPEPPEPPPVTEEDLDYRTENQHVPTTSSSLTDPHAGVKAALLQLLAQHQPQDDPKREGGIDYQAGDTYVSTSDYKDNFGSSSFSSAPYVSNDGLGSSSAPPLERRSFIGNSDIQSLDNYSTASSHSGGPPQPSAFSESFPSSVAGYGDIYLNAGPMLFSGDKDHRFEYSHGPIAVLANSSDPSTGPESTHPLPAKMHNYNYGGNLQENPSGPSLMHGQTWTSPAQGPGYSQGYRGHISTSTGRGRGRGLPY
T1 sequence (O75909 whole entry partner): as the sequence (O75909 whole entry partner) above
T3 sequence (Q12809 whole entry): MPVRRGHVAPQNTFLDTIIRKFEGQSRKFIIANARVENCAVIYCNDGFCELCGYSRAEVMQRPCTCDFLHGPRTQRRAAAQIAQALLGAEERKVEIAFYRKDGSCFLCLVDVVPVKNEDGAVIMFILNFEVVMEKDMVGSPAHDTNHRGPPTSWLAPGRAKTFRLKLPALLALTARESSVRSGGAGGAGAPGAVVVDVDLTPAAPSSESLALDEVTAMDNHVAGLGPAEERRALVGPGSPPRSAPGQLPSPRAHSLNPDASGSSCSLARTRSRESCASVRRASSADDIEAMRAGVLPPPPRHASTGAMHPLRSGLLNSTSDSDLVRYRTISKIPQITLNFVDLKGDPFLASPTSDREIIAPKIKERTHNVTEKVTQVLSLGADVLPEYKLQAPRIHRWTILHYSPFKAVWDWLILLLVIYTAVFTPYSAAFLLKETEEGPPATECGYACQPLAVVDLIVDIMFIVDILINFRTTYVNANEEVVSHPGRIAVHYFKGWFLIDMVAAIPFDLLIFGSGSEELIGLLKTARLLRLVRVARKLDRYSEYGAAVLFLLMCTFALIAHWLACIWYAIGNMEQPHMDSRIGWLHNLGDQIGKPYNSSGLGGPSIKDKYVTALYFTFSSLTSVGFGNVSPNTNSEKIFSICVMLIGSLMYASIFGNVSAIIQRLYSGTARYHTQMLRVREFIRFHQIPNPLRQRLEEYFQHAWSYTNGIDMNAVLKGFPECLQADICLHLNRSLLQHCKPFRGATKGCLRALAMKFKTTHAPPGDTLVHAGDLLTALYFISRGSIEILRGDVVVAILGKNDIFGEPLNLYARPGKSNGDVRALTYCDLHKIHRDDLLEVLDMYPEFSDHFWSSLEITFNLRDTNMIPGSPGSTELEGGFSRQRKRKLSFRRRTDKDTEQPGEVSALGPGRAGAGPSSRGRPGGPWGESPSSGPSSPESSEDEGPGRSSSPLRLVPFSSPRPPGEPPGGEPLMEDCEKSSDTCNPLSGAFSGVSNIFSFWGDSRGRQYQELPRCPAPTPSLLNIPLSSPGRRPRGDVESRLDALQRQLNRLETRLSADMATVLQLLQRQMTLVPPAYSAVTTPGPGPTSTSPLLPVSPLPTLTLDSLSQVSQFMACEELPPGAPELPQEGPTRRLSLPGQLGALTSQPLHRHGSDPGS

With `CC(=O)N(c1ccc(-c2ccc(N3CCN(CC(=O)N[C@H](C(=O)N4C[C@H](O)C[C@H]4C(=O)N[C@@H](C)c4ccc(-c5scnc5C)cc4)C(C)(C)C)CC3)nc2)cc1)[C@H]1CC[C@H](Nc2ncc3ccccc3n2)CC1` [Formula 147, (2S,4R)-1-((S)-3,3-dimethyl-2-(2-(4-(5-(4-(N-((1R,4R)-4-(quinazolin-2-ylamino)cyclohexyl)acetamido)phenyl)pyridin-2-yl)piperazin-1-yl)acetamido)butanoyl)-4-hydroxy-N—((S)-1-(4-(4-methylthiazol-5-yl)phenyl)ethyl)pyrrolidine-2-carboxamide], the half-life in series [1] was 2.58 h. Further, the DC50 on CDK13 [2] (DC50 classes, cell line not given, read-out: CDK13 degradation Activity) is < 100 nM; on CDK13 [2] (HCT116, colorectal cancer cells, read-out: CDK13 DC50), 15 nM; on CDK13 [2] (KASUMI-1, leukemia cells, read-out: CDK13 DC50), 10 nM; on CDK13 [2] (MDA-MB-231, breast cancer cells, read-out: CDK13 DC50), 9 nM; on CDK12 [3] (DC50 classes, cell line not given, read-out: CDK12 degradation Activity), < 100 nM; on CDK12 [3] (HCT116, colorectal cancer cells, read-out: CDK12 DC50), 13 nM. Besides, the DC50 at CDK12 [3] (KASUMI-1, leukemia cells, read-out: CDK12 DC50) was determined as 17 nM; on CDK12 [3] (MDA-MB-231, breast cancer cells, read-out: CDK12 DC50), 15 nM. Further, the “reversal of CCNK degradation by MG132” value in the series on CCNK was “can reverse the degradation of CDK12/13 and CCNK”. Further, on CDK13 [4], the “reversal of CDK13 degradation by MG132” value is “can reverse the degradation of CDK12/13 and CCNK”. For the same compound, the “inhibitory effect on the hERG channel” value against hERG channel is recorded as “weak or no inhibitory effect on the hERG channel”. Moreover, on CDK12 [5], the “reversal of CDK12 degradation by MG132” value was “can reverse the degradation of CDK12/13 and CCNK”.
Regarding `CN(C)C/C=C/C(=O)Nc1ccc(C(=O)N2CCC[C@@H](Nc3ncc(Cl)c(-c4c[nH]c5ccccc45)n3)C2)cc1` [THZ-531], the “proliferation inhibitory activity on normal and tumor cells” value in series [6] was “indiscriminate proliferation inhibitory activity on both normal and tumor cells”.
